Data published in patent publication US10294202B2, “Pyrrolidinones as herbicides” (FMC Corporation, priority 2013, dated 2019).

Assays:
ducksalad = experiment: Test B flooded paddy test; format: in vivo, Heteranthera limosa; settings: 250 g ai/ha, Flood; scale of 0 to 100 where 0 is no effect and 100 is complete control
Outline: (§1)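 Scoring: visual, compared with untreated controls, 0 = no effect through 100 = complete control, taken 13 to 15 days after treatment in the greenhouse. Compounds had been added to paddy water over soil flooded 3 cm deep at the plants' 2-leaf stage.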

corn = experiment: Test C pre-/postemergence herbicide test; format: in vivo, Zea mays
Outline: (§2)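 Visual rating, 0 (no effect) to 100 (complete control), versus untreated controls after 13 to 15 days in the greenhouse. Pre: seeds in loam/sand, sprayed at planting. Post: 1- to 4-leaf plants (2 to 18 cm) in peat-based mix. Compounds in non-phytotoxic solvent plus surfactant.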

wheat (winter wheat) = experiment: Test C pre-/postemergence herbicide test; format: in vivo, Triticum aestivum
Outline: as §2

morningglory = experiment: Test C pre-/postemergence herbicide test; format: in vivo, Ipomoea coccinea
Outline: as §2

sedge, umbrella = experiment: Test B flooded paddy test; format: in vivo, Cyperus difformis; settings: 250 g ai/ha, Flood; scale of 0 to 100 where 0 is no effect and 100 is complete control
Outline: as §1

soybean = experiment: Test C pre-/postemergence herbicide test; format: in vivo, Glycine max
Outline: as §2

oat, wild = experiment: Test C pre-/postemergence herbicide test; format: in vivo, Avena fatua; settings: Postemergence
Outline: as §2

waterhemp = experiment: Test C pre-/postemergence herbicide test; format: in vivo, Amaranthus rudis
Outline: as §2

ragweed = experiment: Test C pre-/postemergence herbicide test; format: in vivo, Ambrosia elatior; settings: Postemergence
Outline: as §2

lambsquarters = experiment: Test C pre-/postemergence herbicide test; format: in vivo, Chenopodium album
Outline: as §2

ryegrass, Italian = experiment: Test C pre-/postemergence herbicide test; format: in vivo, Lolium multiflorum
Outline: as §2

pigweed = experiment: Test C pre-/postemergence herbicide test; format: in vivo, Amaranthus retroflexus
Outline: as §2

galium = experiment: Test C pre-/postemergence herbicide test; format: in vivo, Galium aparine; settings: for Plant response rating, Galium: Postemergence
Outline: as §2

barnyardgrass [1] = experiment: Test B flooded paddy test; format: in vivo, Echinochloa crus-galli; settings: 250 g ai/ha, Flood; scale of 0 to 100 where 0 is no effect and 100 is complete control
Outline: as §1

barnyardgrass [2] = experiment: Test C pre-/postemergence herbicide test; format: in vivo, Echinochloa crus-galli
Outline: as §2

[3] = Postemergence, 31 g ai/ha, scale 0 (no effect) to 100 (complete control)
[4] = Postemergence, 62 g ai/ha, scale 0 to 100 (0 no effect, 100 complete control)
[5] = Postemergence, 125 g ai/ha, scale 0 to 100 (0 no effect, 100 complete control)
[6] = Postemergence, 250 g ai/ha, scale 0 to 100 (0 no effect, 100 complete control)
[7] = Preemergence, 31 g ai/ha, scale 0 to 100, 0 is no effect and 100 is complete control
[8] = Preemergence, 62 g ai/ha, scale 0 to 100
[9] = Preemergence, 125 g ai/ha, scale 0 to 100 (0 no effect, 100 complete control)
[10] = 31 g ai/ha, scale 0 (no effect) to 100 (complete control)
[11] = 62 g ai/ha, scale 0 to 100 (0 no effect, 100 complete control)
[12] = 125 g ai/ha, scale 0 to 100 (0 no effect, 100 complete control)
[13] = 250 g ai/ha, scale 0 to 100 (0 no effect, 100 complete control)

For `O=C1NCC(c2ccc(F)c(C(F)(F)F)c2)C1C(=O)Nc1ccccc1F` (racemic) [Compound 76], the “Plant response rating, Ducksalad” value (ducksalad) was 90, the “Plant response rating, Corn” value (corn; [3]) was 0 and the “Plant response rating, Corn” value (corn; [4]) was 0. For the same compound, the “Plant response rating, Corn” value (corn; [5]) was 0, the “Plant response rating, Corn” value (corn; [6]) was 0 and the “Corn plant response rating” value (corn; [7]) was 0. For the same compound, the “Plant response rating, Corn” value (corn; [8]) was 10, the “Plant response rating, Corn” value (corn; [9]) was 40 and the “Plant response rating (scale of 0 to 100), Corn” value (corn; Preemergence, 250 g ai/ha) was 65. For the same compound, the “Plant response rating, Wheat” value (wheat (winter wheat); [3]) was 0, the “Plant response rating, Wheat” value (wheat (winter wheat); [4]) was 0 and the “Plant response rating, Wheat” value (wheat (winter wheat); [5]) was 0. The “Plant response rating, Wheat” value (wheat (winter wheat); [6]) was 5, the “Wheat plant response rating” value (wheat (winter wheat); [7]) was 35 and the “Plant response rating, Wheat” value (wheat (winter wheat); [8]) was 45. The “Plant response rating, Wheat” value (wheat (winter wheat); [9]) was 70, the “Plant response rating (scale of 0 to 100), Wheat” value (wheat (winter wheat); Preemergence, 250 g ai/ha) was 80 and the “Plant response rating, Morningglory” value (morningglory; [3]) was 10. The “Plant response rating, Morningglory” value (morningglory; [4]) was 10, the “Plant response rating, Morningglory” value (morningglory; [5]) was 40 and the “Plant response rating, Morningglory” value (morningglory; [6]) was 40. For the same compound, the “Morningglory plant response rating” value (morningglory; [7]) was 0, the “Plant response rating, Morningglory” value (morningglory; [8]) was 0 and the “Plant response rating, Morningglory” value (morningglory; [9]) was 40. The “Plant response rating (scale of 0 to 100), Morningglory” value (morningglory; Preemergence, 250 g ai/ha) was 40, the “Plant response rating, Sedge, Umbrella” value (sedge, umbrella) was 0 and the “Plant response rating, Soybean” value (soybean; [3]) was 0. For the same compound, the “Plant response rating, Soybean” value (soybean; [4]) was 0, the “Plant response rating, Soybean” value (soybean; [5]) was 5 and the “Plant response rating, Soybean” value (soybean; [6]) was 10. For the same compound, the “Soybean plant response rating” value (soybean; [7]) was 0, the “Plant response rating, Soybean” value (soybean; [8]) was 0 and the “Plant response rating, Soybean” value (soybean; [9]) was 0. The “Plant response rating (scale of 0 to 100), Soybean” value (soybean; Preemergence, 250 g ai/ha) was 0, the “Plant response rating, Oat, Wild” value (oat, wild; [10]) was 0 and the “Plant response rating, Oat, Wild” value (oat, wild; [11]) was 0. The “Plant response rating, Oat, Wild” value (oat, wild; [12]) was 0, the “Plant response rating, Oat, Wild” value (oat, wild; [13]) was 0 and the “Plant response rating, Waterhemp” value (waterhemp; [3]) was 0. The “Plant response rating, Waterhemp” value (waterhemp; [4]) was 5, the “Plant response rating, Waterhemp” value (waterhemp; [5]) was 5 and the “Plant response rating, Waterhemp” value (waterhemp; [6]) was 10. The “Waterhemp plant response rating” value (waterhemp; [7]) was 50, the “Plant response rating, Waterhemp” value (waterhemp; [8]) was 50 and the “Plant response rating, Waterhemp” value (waterhemp; [9]) was 50. The “Plant response rating (scale of 0 to 100), Waterhemp” value (waterhemp; Preemergence, 250 g ai/ha) was 60, the “Plant response rating, Ragweed” value (ragweed; [10]) was 25 and the “Plant response rating, Ragweed” value (ragweed; [11]) was 40. The “Plant response rating, Ragweed” value (ragweed; [12]) was 40, the “Plant response rating, Ragweed” value (ragweed; [13]) was 55 and the “Plant response rating, Lambsquarters” value (lambsquarters; [3]) was 40. For the same compound, the “Plant response rating, Lambsquarters” value (lambsquarters; [4]) was 40, the “Plant response rating, Lambsquarters” value (lambsquarters; [5]) was 40 and the “Plant response rating, Lambsquarters” value (lambsquarters; [6]) was 50. For the same compound, the “Plant response rating, Lambsquarters” value (lambsquarters; [8]) was 0, the “Plant response rating, Lambsquarters” value (lambsquarters; [9]) was 0 and the “Plant response rating (scale of 0 to 100), Lambsquarters” value (lambsquarters; Preemergence, 250 g ai/ha) was 35. The “Plant response rating, Ryegrass, Italian” value (ryegrass, Italian; [3]) was 0, the “Plant response rating, Ryegrass, Italian” value (ryegrass, Italian; [4]) was 0 and the “Plant response rating, Ryegrass, Italian” value (ryegrass, Italian; [5]) was 0. The “Plant response rating, Ryegrass, Italian” value (ryegrass, Italian; [6]) was 5, the “Ryegrass, Italian plant response rating” value (ryegrass, Italian; [7]) was 0 and the “Plant response rating, Ryegrass, Italian” value (ryegrass, Italian; [8]) was 25. The “Plant response rating, Ryegrass, Italian” value (ryegrass, Italian; [9]) was 40, the “Plant response rating (scale of 0 to 100), Ryegrass, Italian” value (ryegrass, Italian; Preemergence, 250 g ai/ha) was 40 and the “Plant response rating, Pigweed” value (pigweed; [3]) was 5. The “Plant response rating, Pigweed” value (pigweed; [4]) was 10, the “Plant response rating, Pigweed” value (pigweed; [5]) was 10 and the “Plant response rating, Pigweed” value (pigweed; [6]) was 30. For the same compound, the “Plant response rating, Pigweed” value (pigweed; [8]) was 0, the “Plant response rating, Pigweed” value (pigweed; [9]) was 0 and the “Plant response rating (scale of 0 to 100), Pigweed” value (pigweed; Preemergence, 250 g ai/ha) was 40. The “Plant response rating, Galium” value (galium; [10]) was 30, the “Plant response rating, Galium” value (galium; [11]) was 50 and the “Plant response rating, Galium” value (galium; [12]) was 50. The “Plant response rating, Galium” value (galium; [13]) was 65, the “Galium plant response rating” value (galium; [7]) was 5 and the “Plant response rating (scale of 0 to 100), Galium” value (galium; Preemergence, 250 g ai/ha) was 85. The “Plant response rating, Barnyardgrass” value (barnyardgrass [1]) was 0, the “Plant response rating, Barnyardgrass” value (barnyardgrass [2]; [3]) was 0 and the “Plant response rating, Barnyardgrass” value (barnyardgrass [2]; [4]) was 35. The “Plant response rating, Barnyardgrass” value (barnyardgrass [2]; [5]) was 85, the “Plant response rating, Barnyardgrass” value (barnyardgrass [2]; [6]) was 90 and the “Barnyardgrass plant response rating” value (barnyardgrass [2]; [7]) was 80. For the same compound, the “Plant response rating, Barnyardgrass” value (barnyardgrass [2]; [8]) was 85, the “Plant response rating, Barnyardgrass” value (barnyardgrass [2]; [9]) was 95 and the “Plant response rating (scale of 0 to 100; 0 is no effect, 100 is complete control), Barnyardgrass” value (barnyardgrass [2]; Preemergence, 250 g ai/ha) was 98.
